In paper PMC4827027, “Fungal naphtho-γ-pyrones: Potent antibiotics for drug-resistant microbial pathogens” (Scientific Reports, 2016):
≈ marks a conversion by molar mass, not a printed value.

Experiments:
[1] = test system: E. faecalis (ATCC 29212); assay: Broth microdilution MIC, E. faecalis ATCC 29212; settings: Enterococcus faecalis, ATCC29212, 24 h, read-out: Minimum inhibitory concentrations, E. faecalis ATCC 29212
[2] = test system: P. aeruginosa (ATCC 27853); assay: Broth microdilution MIC, P. aeruginosa ATCC 27853; settings: Pseudomonas aeruginosa, ATCC27853, 24 h, read-out: Minimum inhibitory concentrations, P. aeruginosa ATCC 27853
[3] = test system: ESBL-producing E. coli (ATCC 35218); assay: Broth microdilution MIC, ESBL-producing E. coli ATCC 35218; settings: Escherichia coli, ATCC35218, 24 h, read-out: Minimum inhibitory concentrations, E. coli ATCC 35218
[4] = target: T1, E. coli FabI (Escherichia coli, UniProt P0AEK4); assay: Microscale thermophoresis (MST) binding to FabI; settings: for Dissociation constant with E. coli FabI, Kd: MST, means ± SD for three experiments, n.i. is no clear binding detected in the MST measurement
[5] = test system: K. pneumoniae (ATCC 700603); assay: Broth microdilution MIC, K. pneumoniae ATCC 700603; settings: for MIC: Klebsiella pneumoniae, ATCC700603, 24 h, read-out: Minimum inhibitory concentrations, K. pneumoniae ATCC 700603
[6] = target: T1, E. coli FabI; assay: FabI inhibition IC50 assay (crotonoyl-CoA/NADH); settings: for Inhibitory activities against E. coli FabI, IC50: 50 μM crotonoyl-CoA, 100 μM NADH, n.i. is no inhibition detected (IC50 > 1 mM)
[7] = test system: E. coli ATCC 25922; assay: Broth microdilution MIC, E. coli ATCC 25922; settings: for MIC: Escherichia coli, ATCC25922, 24 h, read-out: Minimum inhibitory concentrations, E. coli ATCC 25922
[8] = test system: MRSA (S. aureus ATCC 43300); assay: Broth microdilution MIC, MRSA ATCC 43300; settings: for MIC: Staphylococcus aureus, ATCC43300|MRSA, 24 h, read-out: Minimum inhibitory concentrations, S. aureus ATCC 43300

T1 sequence (P0AEK4 whole entry): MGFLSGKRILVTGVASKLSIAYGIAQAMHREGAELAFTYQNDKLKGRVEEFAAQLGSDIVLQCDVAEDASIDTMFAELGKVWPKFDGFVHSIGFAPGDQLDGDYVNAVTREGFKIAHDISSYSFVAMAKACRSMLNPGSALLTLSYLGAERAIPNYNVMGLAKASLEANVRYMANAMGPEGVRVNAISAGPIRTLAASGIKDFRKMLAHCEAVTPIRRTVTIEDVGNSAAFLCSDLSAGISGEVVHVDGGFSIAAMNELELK

Row | SMILES | MIC [1] [µg/mL] | MIC [2] [µg/mL] | MIC [3] [µg/mL] | Dissociation constant with E. coli FabI, Kd [4] | MIC [5] [µg/mL] | IC50 [6] [µM] | MIC [7] [µg/mL] | MIC [8] [µg/mL] | Kd [4] [µM] | Inhibition of K. pneumonia (in words) [5] | Antibacterial activity against E. coli (in words) [7] | Antibacterial activity against S. aureus (in words) [8] | Inhibitory activities against E. coli FabI, IC50 [6]
1 | COc1cc(OC)c2c(c1)cc(O)c1c(=O)cc(C)oc12 [Compound 1, Flavasperone] | 68.2 (≈ 238 µM) | 68.2 (≈ 238 µM) | 8.52 (≈ 29.8 µM) | ^bn.i. | ≥ 100 | 110 | 8.52 (≈ 29.8 µM) | ≥ 100 | – | – | – | – | –
2 | COc1cc(OC)c2c(O)c3c(c(-c4c(OC)cc5cc(O)c6c(=O)cc(C)oc6c5c4OC)c2c1)OC(C)(O)CC3=O (centres unmarked) [Compound 3, Fonsecinone C] | 17 (≈ 29 µM) | 17 (≈ 29 µM) | 4.26 (≈ 7.24 µM) | – | ≥ 100 | 3 | 2.13 (≈ 3.62 µM) | 34.1 (≈ 57.9 µM) | 270 ± 9.1 | no obvious inhibition | moderate antibacterial activities | moderate antibacterial activities | –
3 | CO/N=C(\C(=O)N[C@@H]1C(=O)N2C(C(=O)O)=C(CSc3nc(=O)c(=O)[nH]n3C)CS[C@H]12)c1csc(N)n1 [Ceftriaxone, reference compound] | – | 2.13 (≈ 3.84 µM) | 8.52 (≈ 15.4 µM) | – | 2.13 (≈ 3.84 µM) | – | 2.13 (≈ 3.84 µM) | – | – | – | – | – | –
4 | COc1cc(OC)c2c(O)c3c(c(-c4c(OC)cc5cc6oc(C)cc(=O)c6c(O)c5c4OC)c2c1)OC(C)(O)CC3=O (centres unmarked) [Compound 4, Fonsecinone B] | ≥ 100 | ≥ 100 | 17 (≈ 29 µM) | ^bn.i. | 34.1 (≈ 57.9 µM) | 111 | 17 (≈ 29 µM) | ≥ 100 | – | – | – | – | –
5 | NCC[C@H](O)C(=O)N[C@@H]1C[C@H](N)[C@@H](O[C@H]2O[C@H](CN)[C@@H](O)[C@H](O)[C@H]2O)[C@H](O)[C@H]1O[C@H]1O[C@H](CO)[C@@H](O)[C@H](N)[C@H]1O [Amikacin, reference compound] | – | 2.13 (≈ 3.64 µM) | 4.26 (≈ 7.27 µM) | – | 8.52 (≈ 14.5 µM) | – | 2.13 (≈ 3.64 µM) | – | – | – | – | – | –
6 | COc1cc(OC)c2c(c1)c(-c1c(OC)cc3cc4oc(C)cc(=O)c4c(O)c3c1OC)c(O)c1c(=O)cc(C)oc12 [Compound 8, Asperpyrone C] | ≥ 100 | ≥ 100 | 17 (≈ 29.9 µM) | ^bn.i. | 68.2 (≈ 119 µM) | – | 17 (≈ 29.9 µM) | ≥ 100 | – | – | – | – | ^cn.i.
7 | COc1cc(OC)c2c(O)c3c(=O)cc(C)oc3cc2c1 [Compound 5, Rubrofusarin B] | 68.2 (≈ 238 µM) | ≥ 100 | 17 (≈ 59.5 µM) | ^bn.i. | 68.2 (≈ 238 µM) | – | 8.52 (≈ 29.8 µM) | ≥ 100 | – | – | – | – | ^cn.i.
8 | COc1cc(OC)c2c(O)c3c(=O)cc(C)oc3c(-c3c(OC)cc4cc(O)c5c(=O)cc(C)oc5c4c3OC)c2c1 [Compound 2, Fonsecinone A] | 4.26 (≈ 7.47 µM) | 17 (≈ 29.9 µM) | 4.26 (≈ 7.47 µM) | – | ≥ 100 | 2.7 | 2.13 (≈ 3.73 µM) | 34.1 (≈ 59.7 µM) | 215 ± 28.8 | no obvious inhibition | moderate antibacterial activities | moderate antibacterial activities | –
9 | COc1cc(OC)c2c(O)c3c(=O)cc(C)oc3c(-c3c(OC)cc4cc5c(c(O)c4c3OC)C(=O)CC(C)(O)O5)c2c1 (centres unmarked) [Compound 7, Aurasperone E] | 17 (≈ 29 µM) | 34.1 (≈ 57.9 µM) | 8.52 (≈ 14.5 µM) | – | ≥ 100 | 71.8 | 8.52 (≈ 14.5 µM) | 68.2 (≈ 116 µM) | 329 ± 29.7 | – | – | – | –
10 | CN[C@H](CC(C)C)C(=O)N[C@H]1C(=O)N[C@@H](CC(N)=O)C(=O)N[C@H]2C(=O)N[C@H]3C(=O)N[C@H](C(=O)N[C@H](C(=O)O)c4cc(O)cc(O)c4-c4cc3ccc4O)[C@H](O)c3ccc(c(Cl)c3)Oc3cc2cc(c3O[C@@H]2O[C@H](CO)[C@@H](O)[C@H](O)[C@H]2O[C@H]2C[C@](C)(N)[C@H](O)[C@H](C)O2)Oc2ccc(cc2Cl)[C@H]1O [Vancomycin, reference compound] | 0.53 (≈ 0.366 µM) | – | – | – | – | – | – | 0.53 (≈ 0.366 µM) | – | – | – | – | –
11 | COc1cc(OC)c2c(O)c3c(=O)cc(C)oc3c(-c3c(OC)cc4cc5oc(C)cc(=O)c5c(O)c4c3OC)c2c1 [Compound 6, Aurasperone A] | 17 (≈ 29.9 µM) | 34.1 (≈ 59.7 µM) | 8.52 (≈ 14.9 µM) | – | ≥ 100 | 52.1 | 4.26 (≈ 7.47 µM) | 34.1 (≈ 59.7 µM) | 289 ± 31.1 | – | – | – | –
